Laboratory results published in patent publication US20050147527A1, “Microbial destruction using a gas phase decontaminant” (priority 2004, published 2005).
Where “and” joins values, the source holds several entries; their conditions need not be identical. Equal values may be shown once. Read-outs that look alike come from different tables or passages of the source.

Legend:
[1] = system: E. coli, S. aureus, S. choleraesuis
Bacillus subtilis spores = system: Bacillus subtilis spores
Method: A protocol analogous to that used for the food crops was employed for spore testing on stainless steel coupons. 3-1.75 cm×3.75 cm stainless steel coupons were each inoculated (front & back) with a total of 100 μL of Bacillus subtilis spores. The spores were allowed to dry and the three coupons were aseptically transferred to a Ziploc® bag. The remaining protocol used was similar to that of the food crops except that each coupon was neutralized in 8 mL of 10% thiosulfate solution and each coupon's solution was serially diluted and plated onto media.

[2] = system: streptomycin-resistant E. coli; settings: 180° F.; for Log Post-Disinfection (CFU/g) / Log Reduction (CFU/g): DT 18 min
Method: (§1) The following experiments were performed using a system in accordance with the present invention. Food crops were pruned of inedible roots, leaves, etc., and weighed. A given food crop was then inoculated with a single challenge microorganism. All challenge microorganisms were purchased from ATCC as streptomycin-resistant strains-Esherichia coli (E. coli), Staphylococcus aureus (S. aureus), and Salmonella choleraesuis (S. choleraesuis). […] After inoculation, the crops were left to dry for 30 minutes to 1 hour. The crops were then placed in the Ziploc® bag and into the vacuum chamber. […] Parameters such as vacuum pressure, dispensing time, and sterilization wait time were varied in order to arrive at some conclusion concerning the optimum conditions for effective disinfection of the food crops. After the disinfection cycle had ended, the crops were neutralized in 50 mL of 10% thiosulfate solution contained in a sterile mastication bag.
(§2) The bag was then placed in a masticator and pulverized for 2 minutes. The liquid contents were then serially diluted and plated onto the appropriate agar medium. The plates were incubated at 37° C. for 24 hours and plate counts were performed. […] A log reduction in terms of CFU/g was calculated by subtracting the plate counts of the disinfected food from that of its respective control, as shown in Table 1.
(§3) Lettuce was used as the food crop while streptomycin-resistant E. coli was chosen as the challenge microorganism. […] Each food crop was inoculated with streptomycin-resistant strains of E. coli, S. aureus, and S. choleraesuis in separate experiments and 3 minutes was used as the dispense time in every run.

[3] = system: streptomycin-resistant S. aureus; settings: 180° F.; for Log Post-Disinfection (CFU/g) / Log Reduction (CFU/g): DT 18 min
Method: as §1, §2, §3

[4] = system: streptomycin-resistant S. choleraesuis; settings: Radishes; dispense time 3 min; 180° F.; 18 inch Hg; wait 0 min
Method: as §1, §2, §3

[5] = stainless steel coupons, 12 minute dispense time, 180° F., 18 inch Hg, wait 0 min
[6] = Carrots, VP 15 inch Hg, SW 10 min
[7] = Carrots, VP 15 inch Hg, SW 15 min
[8] = Carrots, VP 15 inch Hg, SW 20 min
[9] = Carrots, VP 15 inch Hg, SW 30 min
[10] = Carrots, VP 17 inch Hg, SW 5 min
[11] = Carrots, VP 18 inch Hg, SW 10 min
[12] = Lettuce, VP 15 inch Hg, SW 10 min
[13] = Lettuce, VP 15 inch Hg, SW 15 min
[14] = Radishes, VP 15 inch Hg, SW 10 min
[15] = Radishes, VP 15 inch Hg, SW 15 min
[16] = Table 3, Lettuce, dispense time 3 min, 18 inch Hg, wait 0 min
[17] = Radishes, VP 15 inch Hg, SW 30 min
[18] = Radishes, VP 20 inch Hg, SW 5 min
[19] = Radishes, VP 20 inch Hg, SW 10 min
[20] = Radishes, VP 20 inch Hg, SW 15 min
[21] = Radishes, dispense time 3 min, 18 inch Hg, wait 0 min

`OO` [hydrogen peroxide] was tested. Which “log reductions for every combination of food crop and microbial challenge (Table 3)” value ([1]; 3 minutes dispense time) did it give?
The value was “greater than 3”.

And the “average log reduction of all of the runs shown in Table 1” value ([1]; all food crops, microbial challenges and parameters of Table 1)?
The value was 4.63.

And the “log reduction (lowest over all runs of Table 1)” value ([1]; no matter the food crop, microbial challenge or disinfection parameters)?
The value was at least 2.

And the “Log10 Post-Disinfection (CFU/cm^2)” value (Bacillus subtilis spores; [5])?
Its value is 0 CFU/cm^2.

What about the “Log10 Reduction (CFU/cm^2)” value (Bacillus subtilis spores; [5]) of the same compound?
The value was 5.42 CFU/cm^2.

What about the eradication of spores (Bacillus subtilis spores; within a 12 minute dispense time) of the same compound?
The eradication of spores was “completely eradicate spores”.

And the “Log Post-Disinfection (CFU/g)” value [2, 6]?
Its value is 0 CFU/g.

And the “Log Reduction (CFU/g)” value [2, 6]?
The value was 4.90 CFU/g.

What about the “Log Post-Disinfection (CFU/g)” value [2, 7] of the same compound?
The value was 0 CFU/g.

And the “Log Reduction (CFU/g)” value [2, 7]?
The value was 4.90 CFU/g.

What about the “Log Post-Disinfection (CFU/g)” value [2, 8] of the same compound?
The value was 0 CFU/g.

And the “Log Reduction (CFU/g)” value [2, 8]?
The value was 5.45 CFU/g.

And the “Log Post-Disinfection (CFU/g)” value [2, 9]?
Its value is 0 CFU/g.

And the “Log Reduction (CFU/g)” value [2, 9]?
Its value is 4.90 CFU/g.

What about the “Log Post-Disinfection (CFU/g)” value [2, 10] of the same compound?
Its value is 0 CFU/g.

And the “Log Reduction (CFU/g)” value [2, 10]?
Its value is 5.45 CFU/g.

What about the “Log Post-Disinfection (CFU/g)” value [2, 11] of the same compound?
Its value is 0 CFU/g.

What about the “Log Reduction (CFU/g)” value [2, 11] of the same compound?
The value was 5.45 CFU/g.

And the “Log Post-Disinfection (CFU/g)” value [2, 12]?
Its value is 0 CFU/g.

And the “Log Reduction (CFU/g)” value [2, 12]?
Its value is 6.38 CFU/g.

And the “Log Post-Disinfection (CFU/g)” value [2, 13]?
Its value is 1.93 CFU/g.

And the “Log Reduction (CFU/g)” value [2, 13]?
Its value is 4.31 CFU/g.

And the “Log Post-Disinfection (CFU/g)” value [2, 14]?
Its value is 2.85 CFU/g.

And the “Log Reduction (CFU/g)” value [2, 14]?
Its value is 2.95 CFU/g.

And the “Log Post-Disinfection (CFU/g)” value [2, 15]?
Its value is 3.73 CFU/g.

And the “Log Reduction (CFU/g)” value [2, 15]?
The value was 2.07 CFU/g.

What about the “Log10 Post-Disinfection (CFU/g)” value [2, 16] of the same compound?
Its value is 0 CFU/g.

And the “Log10 Reduction (CFU/g)” value [2, 16]?
The value was “≧6.23 CFU/g”.

And the “Log Post-Disinfection (CFU/g)” value [3, 13]?
The value was 0 CFU/g.

What about the “Log Reduction (CFU/g)” value [3, 13] of the same compound?
The value was 6.81 CFU/g.

What about the “Log Post-Disinfection (CFU/g)” value [3, 17] of the same compound?
Its value is 0 CFU/g.

What about the “Log Reduction (CFU/g)” value [3, 17] of the same compound?
Its value is 6.33 CFU/g.

What about the “Log Post-Disinfection (CFU/g)” value [3, 18] of the same compound?
Its value is 0 CFU/g.

What about the “Log Reduction (CFU/g)” value [3, 18] of the same compound?
The value was 6.09 CFU/g.

What about the “Log Post-Disinfection (CFU/g)” value [3, 19] of the same compound?
Its value is 0 CFU/g.

What about the “Log Reduction (CFU/g)” value [3, 19] of the same compound?
Its value is 6.09 CFU/g.

What about the “Log Post-Disinfection (CFU/g)” value [3, 20] of the same compound?
The value was 1.61 CFU/g.

What about the “Log Reduction (CFU/g)” value [3, 20] of the same compound?
The value was 4.48 CFU/g.

What about the “Log10 Post-Disinfection (CFU/g)” value [3, 21] of the same compound?
The value was 0 CFU/g.

And the “Log10 Reduction (CFU/g)” value [3, 21]?
The value was “≧5.25 CFU/g”.

What about the “Log10 Post-Disinfection (CFU/g)” value [4] of the same compound?
Its value is 1.67 CFU/g and 1.95 CFU/g and 1.82 CFU/g.
